Results taken from patent EP2698385A1, “Detection of synthetic cannabinoids” (priority 2012, dated 2014).
Where two headings read alike, the source gives them in different places.

Columns and labels:
Format in all cases: binding, sheep
[1] = test system: Antibody to Immunogen I
How it was run: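 Sheep anti-Immunogen I IgG coated on plates, then JWH-018 standards (0–40 ng/ml) competed with hapten-HRP conjugate for 1 h at 25°C. TMB read-out at 450 nm, 4-parameter fit. IC50 is the standard concentration giving 50% B/B0; cross-reactivity of related cannabinoids taken from the calibration curves.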

[2] = test system: Antibody to Immunogen IV
[3] = test system: Antibody to Immunogen VII; details: Cross-reactants at 100 ng/ml; Antibody to Immunogen VII
[4] = test system: Antibody to Immunogen VIII
[5] = Cross-reactants at 100 ng/ml, Antibody to Immunogen I
[6] = Cross-reactants at 100 ng/ml, Antibody to Immunogen IV
[7] = Cross-reactants at 100 ng/ml, Antibody to Immunogen VIII

CCCCCn1cc(C(=O)c2ccc(Cl)c3ccccc23)c2ccccc21 [JWH-398]
%B/B0 [1, 5]: 60.31%
%B/B0 [2, 6]: 6.00%
%B/B0 [3]: 94.47%
%B/B0 [4, 7]: 18.66%

CCCCCn1cc(C(=O)c2cccc3ccccc23)c2c(O)cccc21 [JWH-018 4-hydroxyindole metabolite]
%B/B0 [1, 5]: 46.39%
%B/B0 [2, 6]: 20.42%
%B/B0 [3]: 89.96%
%B/B0 [4, 7]: 16.72%

CCCCCn1cc(C(=O)c2cccc3ccccc23)c2ccc(O)cc21 [JWH-018 6-hydroxyindole metabolite]
%B/B0 [1, 5]: 8.07%
%B/B0 [2, 6]: 51.00%
%B/B0 [3]: 68.17%
%B/B0 [4, 7]: 89.86%

O=C(c1cccc2ccccc12)c1cn(CCN2CCOCC2)c2ccccc12 [WIN 55,225 (other name JWH-200), JWH-200]
%B/B0 [1, 5]: 3.51%
%B/B0 [2, 6]: 77.08%
%B/B0 [3]: 42.85%
%B/B0 [4, 7]: 98.81%

CCCCn1cc(C(=O)c2cccc3ccccc23)c2ccccc21 [JWH-073]
%B/B0 [1, 5]: 3.56%
%B/B0 [2, 6]: 13.63%
%B/B0 [3]: 58.34%
%B/B0 [4, 7]: 25.50%

CCCCCn1cc(C(=O)c2cccc3ccccc23)c2ccccc21 [JWH-018]
%B/B0 [1, 5]: 5.19%
%B/B0 ([1]; JWH-018 standard 0.625 ng/ml): 77%
%B/B0 ([1]; JWH-018 standard 1.25 ng/ml): 62%
%B/B0 ([1]; JWH-018 standard 2.5 ng/ml): 44%
%B/B0 ([1]; JWH-018 standard 5 ng/ml): 31%
%B/B0 ([1]; JWH-018 standard 10 ng/ml): 20%
%B/B0 ([1]; JWH-018 standard 20 ng/ml): 14%
%B/B0 ([1]; JWH-018 standard 40 ng/ml): 9%
IC50 ([1]; Table 3a standard curve, standard concentration which produces 50% B/B0): 2.016 ng/mL
%B/B0 [2, 6]: 6.80%
%B/B0 ([2]; JWH-018 standard 1.25 ng/ml): 87%
%B/B0 ([2]; JWH-018 standard 2.5 ng/ml): 68%
%B/B0 ([2]; JWH-018 standard 5 ng/ml): 42%
%B/B0 ([2]; JWH-018 standard 10 ng/ml): 26%
%B/B0 ([2]; JWH-018 standard 20 ng/ml): 16%
%B/B0 ([2]; JWH-018 standard 40 ng/ml): 10%
%B/B0 ([2]; JWH-018 standard 80 ng/ml): 7%
IC50 ([2]; Table 3b standard curve, standard concentration which produces 50% B/B0): 4.133 ng/mL
%B/B0 [3]: 67.66%
%B/B0 [4, 7]: 17.66%
%B/B0 ([4]; JWH-018 standard 1 ng/ml): 79%
%B/B0 ([4]; JWH-018 standard 3 ng/ml): 63%
%B/B0 ([4]; JWH-018 standard 5 ng/ml): 51%
%B/B0 ([4]; JWH-018 standard 10 ng/ml): 40%
%B/B0 ([4]; JWH-018 standard 20 ng/ml): 29%
%B/B0 ([4]; JWH-018 standard 40 ng/ml): 22%
%B/B0 ([4]; JWH-018 standard 80 ng/ml): 16%
IC50 ([4]; Table 3c standard curve, standard concentration which produces 50% B/B0): 5.230 ng/mL

O=C(c1cccc2ccccc12)c1c[nH]c2ccccc12 [3-(1-naphthoyl)-1H-Indole, 3-(1-naphthoyl)-1H-indole]
%B/B0 [1, 5]: 15.63%
%B/B0 [2, 6]: 95.55%
%B/B0 [3]: 80.08%
%B/B0 [4, 7]: 90.49%

CCCCCn1cc(C(=O)c2cccc3ccccc23)c2cc(O)ccc21 [JWH-018 5-hydroxyindole metabolite]
%B/B0 [1, 5]: 11.79%
%B/B0 [2, 6]: 78.56%
%B/B0 [3]: 85.76%
%B/B0 [4, 7]: 87.67%

O=C(O)CCCCn1cc(C(=O)c2cccc3ccccc23)c2ccccc21 [JWH-018 N-pentanoic acid metabolite]
%B/B0 [1, 5]: 4.51%
%B/B0 [2, 6]: 99.89%
%B/B0 [3]: 53.02%
%B/B0 [4, 7]: 100.31%

O=C(c1cccc2ccccc12)c1cn(CCCCCO)c2ccccc12 [JWH-018 N-(5-hydroxypentyl) metabolite]
%B/B0 [1, 5]: 3.50%
%B/B0 [2, 6]: 78.42%
%B/B0 [3]: 53.32%
%B/B0 [4, 7]: 57.37%
